{"source": "patent US20240294489A1", "about": "(Captor Therapeutics S.A., priority 2020, published 2024)", "type_in_all_cases": "cell-based", "key": {"SALL4": {"target": "T1, SALL4 (Homo sapiens, UniProt Q96SW2+Q9UJQ4)", "T1 construct": "SALL4 degradation in the Kelly cell line was investigated; endogenous in cells; host or cells: Kelly", "T1 sequence (Q9UJQ4 whole entry)": "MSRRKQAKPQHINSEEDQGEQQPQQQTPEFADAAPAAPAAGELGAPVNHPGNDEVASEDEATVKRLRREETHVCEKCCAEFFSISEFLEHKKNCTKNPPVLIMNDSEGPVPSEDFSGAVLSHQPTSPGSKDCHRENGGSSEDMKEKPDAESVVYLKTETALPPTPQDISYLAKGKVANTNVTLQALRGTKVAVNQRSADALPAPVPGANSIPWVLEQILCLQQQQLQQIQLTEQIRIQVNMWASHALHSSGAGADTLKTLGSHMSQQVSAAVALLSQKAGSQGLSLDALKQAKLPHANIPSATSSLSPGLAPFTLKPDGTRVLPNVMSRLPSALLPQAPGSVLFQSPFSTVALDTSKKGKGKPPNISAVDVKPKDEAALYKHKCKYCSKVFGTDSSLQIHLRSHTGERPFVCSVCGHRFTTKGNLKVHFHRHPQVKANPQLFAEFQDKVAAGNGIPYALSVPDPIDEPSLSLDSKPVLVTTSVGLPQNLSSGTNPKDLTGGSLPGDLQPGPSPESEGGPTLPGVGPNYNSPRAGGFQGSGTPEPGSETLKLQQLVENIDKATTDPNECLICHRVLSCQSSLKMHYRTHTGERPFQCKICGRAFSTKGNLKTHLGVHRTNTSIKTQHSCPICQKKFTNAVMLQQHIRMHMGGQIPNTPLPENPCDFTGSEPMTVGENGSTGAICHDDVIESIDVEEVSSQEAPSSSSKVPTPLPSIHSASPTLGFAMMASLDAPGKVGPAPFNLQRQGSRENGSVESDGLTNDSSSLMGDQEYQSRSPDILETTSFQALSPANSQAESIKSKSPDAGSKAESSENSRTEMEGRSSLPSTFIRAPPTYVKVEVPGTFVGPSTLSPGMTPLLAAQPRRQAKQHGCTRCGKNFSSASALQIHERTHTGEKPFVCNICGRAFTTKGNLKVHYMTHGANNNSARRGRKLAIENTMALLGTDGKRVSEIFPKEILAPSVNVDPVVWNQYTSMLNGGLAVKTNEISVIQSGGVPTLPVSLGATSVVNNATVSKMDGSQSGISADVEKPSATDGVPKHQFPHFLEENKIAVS", "T1 sequence (Q96SW2 whole entry)": "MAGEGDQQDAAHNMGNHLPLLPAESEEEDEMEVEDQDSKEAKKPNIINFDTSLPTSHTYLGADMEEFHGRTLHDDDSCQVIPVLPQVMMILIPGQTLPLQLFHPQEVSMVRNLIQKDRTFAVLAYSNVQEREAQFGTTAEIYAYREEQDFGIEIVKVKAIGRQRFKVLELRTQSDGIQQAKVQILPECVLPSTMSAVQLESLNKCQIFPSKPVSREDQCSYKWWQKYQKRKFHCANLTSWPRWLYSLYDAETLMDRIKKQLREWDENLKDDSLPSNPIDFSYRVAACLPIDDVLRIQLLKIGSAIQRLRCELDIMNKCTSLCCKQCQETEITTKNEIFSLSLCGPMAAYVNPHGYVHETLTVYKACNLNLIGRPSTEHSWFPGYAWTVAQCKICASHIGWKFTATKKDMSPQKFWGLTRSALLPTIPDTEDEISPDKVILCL", "T1 sequence (Q16531 whole entry partner)": "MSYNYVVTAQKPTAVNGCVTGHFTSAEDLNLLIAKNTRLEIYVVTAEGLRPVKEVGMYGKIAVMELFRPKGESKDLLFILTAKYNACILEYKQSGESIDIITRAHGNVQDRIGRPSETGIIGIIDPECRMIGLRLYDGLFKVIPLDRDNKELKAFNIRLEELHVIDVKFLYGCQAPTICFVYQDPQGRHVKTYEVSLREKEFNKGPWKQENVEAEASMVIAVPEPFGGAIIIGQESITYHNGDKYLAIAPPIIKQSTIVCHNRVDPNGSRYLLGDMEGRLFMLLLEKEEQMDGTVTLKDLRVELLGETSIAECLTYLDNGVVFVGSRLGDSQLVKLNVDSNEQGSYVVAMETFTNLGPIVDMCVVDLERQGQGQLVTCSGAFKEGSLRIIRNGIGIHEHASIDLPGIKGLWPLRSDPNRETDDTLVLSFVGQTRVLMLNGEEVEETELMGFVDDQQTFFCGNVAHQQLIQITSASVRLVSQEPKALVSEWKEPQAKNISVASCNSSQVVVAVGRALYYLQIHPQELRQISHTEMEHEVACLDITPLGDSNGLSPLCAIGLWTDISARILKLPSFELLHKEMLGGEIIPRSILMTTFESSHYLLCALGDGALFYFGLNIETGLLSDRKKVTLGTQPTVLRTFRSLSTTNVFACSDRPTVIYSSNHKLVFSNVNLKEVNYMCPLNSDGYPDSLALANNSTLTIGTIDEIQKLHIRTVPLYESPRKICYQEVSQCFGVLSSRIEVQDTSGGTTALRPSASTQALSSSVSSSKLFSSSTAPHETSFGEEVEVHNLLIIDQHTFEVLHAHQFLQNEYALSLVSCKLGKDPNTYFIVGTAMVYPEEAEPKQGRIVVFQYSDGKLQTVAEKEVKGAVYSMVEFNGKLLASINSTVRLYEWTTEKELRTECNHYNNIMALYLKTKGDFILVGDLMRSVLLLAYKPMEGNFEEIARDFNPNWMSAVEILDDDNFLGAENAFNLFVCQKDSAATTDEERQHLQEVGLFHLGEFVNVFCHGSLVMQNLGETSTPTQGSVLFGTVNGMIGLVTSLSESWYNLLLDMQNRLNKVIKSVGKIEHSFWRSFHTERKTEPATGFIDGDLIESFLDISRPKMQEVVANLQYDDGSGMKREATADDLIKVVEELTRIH", "assay": "SALL4 degradation assay, Kelly cell line (Western blot densitometry)", "settings": "Kelly cells, 100 nM, 24 h, average from n ≥ 2 experiments", "method": "Cells were seeded on 6- or 12-well plates, and the compounds to be tested were added at the desired concentration range. […] After 24 h incubation (37° C., 5% CO2), cells were harvested, washed and cell lysates were prepared using RIPA lysis buffer. The amount of protein was determined via BCA assay, and the appropriate quantity was then loaded on the precast gel for the protein separation. After primary and secondary Ab staining, the membranes were washed and signals developed. The densitometry analysis was implemented to obtain the numeric values used later in the protein level evaluation process."}, "H929 cells": {"tested_on": "H929 cells", "assay": "Cell viability CTG assay, H929", "set-up": "key to Geomean absolute IC50 by molecule, 72 H: Inactive represents IC50 > 50 μM; C represents 50 μM ≥ IC50 > 5 μM", "settings": "H929, 72 h, 0.001-50 μM", "summary_of_the_method": "(§1)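 Cells exposed to compound at 0.25% v/v DMSO for 72 h (37° C., 5% CO2). ATP quantified by CellTiter-Glo luminescence, normalized to DMSO control. Absolute IC50 (T/C=50%) by non-linear regression on duplicate means; geometric mean used for averages.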"}, "TMD8": {"tested_on": "TMD8", "assay": "Cell viability, additional cell lines (CellTiter-Glo), TMD8", "settings": "Homo sapiens, TMD8, 72 h; read-out: Absolute IC50", "method": "(§2) Tumor cells are grown at 37° C. in a humidified atmosphere with 5% CO2 in RPMI 1640 medium, supplemented with 10% (v/v) fetal calf serum and 50 μg/ml gentamicin for up to 20 passages, and are passaged once or twice weekly.\n(§3) Cells are harvested from exponential phase cultures, counted and plated in 96 well flat-bottom microtiter plates at a cell density depending on the cell line's growth rate (4,000-20,000 cells/well depending on the cell line's growth rate, up to 60,000 for hematological cancer cell lines) in RPMI 1640 medium supplemented with 10% (v/v) fetal calf serum and 50 μg/ml gentamicin (140 μl/well). Cultures are incubated at 37° C. and 5% CO2 in a humidified atmosphere. After 24 h, 10 μl of test compounds or control medium are added and left on the cells for another 72 h. Compounds are serially diluted in DMSO, transferred in cell culture medium, and added to the assay plates by using a Tecan Freedom EVO 200 robotic platform. The DMSO concentration is kept constant at 0.3% v/v across the assay plate. Viability of cells is quantified by the CellTiter-Glo® cell viability assay (Promega G8462). After incubation of cells, 100 μl of CellTiter-Glo® One Solution Assay reagent are added to each well. Plates are shaken for 2 minutes to induce cell lysis and incubated for 20 minutes prior to reading luminescence (LU) by using the EnVision® Xcite multilabel plate reader (Perkin Elmer). […]"}, "Kelly cells": {"tested_on": "Kelly cells", "assay": "Cell viability CTG assay, Kelly", "settings": "72 h, 0.001-50 μM, read-out: Kelly Geomean absolute IC50 by molecule, 72 H", "summary_of_the_method": "as §1"}, "Hep3B cells": {"tested_on": "Hep3B cells", "assay": "Cell survival clonogenic assay, Hep3B", "settings": "0.1-10 μM, crystal violet staining after 9-10 days", "method": "To determine the ability of a single cell to form a colony (defined as a cluster of at least 50 cells), Kelly and Hep3B cells were maintained in RPM11640 (Kelly) or EMEM (Hep3B) medium, supplemented with penicillin/streptomycin and 10% FBS. The cells were counted and seeded on the 6-well plates, at the density of 1×10^3 cells per well, the compounds to be tested were added at the desired concentration range, and the cells were cultured at 37° C./5% CO2. After colony formation (9-10 days), the cells were washed and treated with 6.0% glutaraldehyde and 0.5% crystal violet mix for 30 min., followed by rinsing with water and drying at room temperature (RT)."}, "GSPT1": {"target": "T2, GSPT1 (Homo sapiens, UniProt P15170+Q96SW2)", "T2 construct": "GSPT1 degradation in the Hep3B cell line was investigated; endogenous in cells; host or cells: Hep3B", "T2 sequence (P15170 whole entry)": "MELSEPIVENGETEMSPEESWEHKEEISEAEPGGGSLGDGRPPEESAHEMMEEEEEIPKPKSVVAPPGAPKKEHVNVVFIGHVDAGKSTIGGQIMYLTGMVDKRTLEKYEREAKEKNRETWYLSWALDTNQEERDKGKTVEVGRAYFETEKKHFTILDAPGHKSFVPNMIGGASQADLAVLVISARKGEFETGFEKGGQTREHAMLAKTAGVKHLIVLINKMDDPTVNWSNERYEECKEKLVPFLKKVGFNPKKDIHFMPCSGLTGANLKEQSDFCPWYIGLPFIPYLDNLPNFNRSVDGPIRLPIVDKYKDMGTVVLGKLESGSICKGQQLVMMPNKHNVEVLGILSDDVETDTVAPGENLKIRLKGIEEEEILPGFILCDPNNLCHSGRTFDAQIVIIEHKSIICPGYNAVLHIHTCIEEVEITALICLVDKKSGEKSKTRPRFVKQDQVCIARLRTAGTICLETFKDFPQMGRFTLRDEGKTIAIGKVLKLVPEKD", "T2 sequence (Q96SW2 whole entry)": "as the sequence (Q96SW2 whole entry) above", "T2 sequence (Q16531 whole entry partner)": "as the sequence (Q16531 whole entry partner) above", "assay": "GSPT1 degradation assay, Hep3B cell line", "settings": "HEP3B cells, 24 h, read-out: % of GSPT1 protein reduction", "summary_of_the_method": "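Hep3B cells treated 24 h at 37 °C with compounds across a concentration range (0.25% DMSO final). GSPT1 level measured by western blot densitometry, normalized to loading control and expressed as % of DMSO control.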"}, "UOC-M1": {"tested_on": "UOC-M1", "assay": "Cell viability, additional cell lines (CellTiter-Glo), UOC-M1", "settings": "UOC-M1, 72 h", "method": "as §2, §3"}, "MOLM-13": {"tested_on": "MOLM-13", "assay": "Cell viability, additional cell lines (CellTiter-Glo), MOLM-13", "settings": "Homo sapiens, MOLM-13, 72 h", "method": "as §2, §3"}, "HL-60": {"tested_on": "HL-60", "assay": "Cell viability, additional cell lines (CellTiter-Glo), HL-60", "settings": "Homo sapiens, HL-60, 72 h; read-out: Absolute IC50", "method": "as §2, §3"}, "[1]": {"settings": "9.5 μM, read-out: Test/Control viability at 9.5 μM"}}, "data": [{"smiles": "NCc1ccc2c(c1)CN(C1CCC(=O)NC1=O)C2=O", "note": "(stereo not drawn) [Compound 1, 3-(5-(aminomethyl)-1-oxoisoindolin-2-yl)piperidine-2,6-dione]", "values": [{"measurement": "% of SALL4 protein reduction", "setting": "SALL4", "result": ">80", "unit": "%"}, {"measurement": "Geomean absolute IC50 by molecule, 72 H", "setting": "H929 cells", "result": "Inactive"}, {"measurement": "IC50", "setting": "TMD8", "result": "> 30", "unit": "µM"}, {"measurement": "IC50", "setting": "Kelly cells", "result": "0.1 to 1", "unit": "µM"}, {"measurement": "survival of the cells (colony formation)", "setting": "Hep3B cells", "result": "in most cases inhibited"}, {"measurement": "inhibition at 1 µM", "setting": "GSPT1; 1 uM", "result": "80 to 100", "unit": "%"}, {"measurement": "inhibition at 10 µM", "setting": "GSPT1; 10 uM", "result": "80 to 100", "unit": "%"}, {"measurement": "viability at 9.5 µM", "setting": "UOC-M1; [1]", "result": "≤ 30", "unit": "%"}, {"measurement": "IC50", "setting": "UOC-M1; read-out: Absolute IC50", "result": "≤ 0.1", "unit": "µM"}, {"measurement": "IC50", "setting": "MOLM-13; read-out: Absolute IC50", "result": "≥ 30", "unit": "µM"}, {"measurement": "viability at 9.5 µM", "setting": "MOLM-13; [1]", "result": "≤ 60", "unit": "%"}, {"measurement": "IC50", "setting": "HL-60", "result": "> 30", "unit": "µM"}]}]}
